IC50 data for 5 compounds are collected here from article PMC3690538, “Structure of Rhomboid Protease in Complex with β-Lactam Inhibitors Defines the S2′ Cavity” (Structure(London, England:1993), 2013).

This test addresses T1, GlpG (Escherichia coli, UniProt P09391).
T1 construct: purified intramembrane serine protease in detergent
T1 sequence (P09391 1-276): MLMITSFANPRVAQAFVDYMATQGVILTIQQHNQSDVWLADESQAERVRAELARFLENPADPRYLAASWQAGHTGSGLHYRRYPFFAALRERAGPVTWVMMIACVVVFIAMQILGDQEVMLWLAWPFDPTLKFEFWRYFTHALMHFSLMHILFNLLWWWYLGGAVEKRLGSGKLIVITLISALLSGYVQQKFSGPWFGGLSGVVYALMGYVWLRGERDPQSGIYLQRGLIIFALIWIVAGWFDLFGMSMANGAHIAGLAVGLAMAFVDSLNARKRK
Nature of the test: gel-based substrate cleavage, SDS-PAGE densitometry, four-parameter fit. In kind it is biochemical.

Broadly, the IC50 is the concentration that inhibits the measured activity by half. A low value points to inhibition by little substance.

Compound `CC(C)COC(=O)N1C(=O)CC1c1ccccc1` (racemic) [L61] had a 50% inhibitory concentration (IC50) of 11.7 ± 0.75 µM. As to `O=C1CC(c2ccccc2)N1C(=O)OC1CCCC1` (racemic) [L62], the IC50 was determined as 5.27 ± 0.08 µM. Turning to `O=C1CC(c2ccccc2)N1C(=O)Oc1ccccc1` (racemic) [L29], it took 1.12 ± 0.05 µM to reach half-maximal inhibition (IC50).

For `O=C1CC(c2ccccc2)N1C(=O)OCc1ccccc1` (centres unmarked) [L59], 0.728 ± 0.06 µM corresponded to half-maximal inhibition (IC50). This IC50 lies about 1.5-fold lower than the previous one. Take `O=C1CC(c2ccccc2)N1C(=O)Oc1ccc(Cl)cc1` (centres unmarked) [L60]: the IC50 was determined as 1.09 ± 0.03 µM.
